Data as given in ChEMBL document CHEMBL1201862, “PubChem BioAssay data set” (2004).
Several values for one entry are separate records, joined by “and”; a condition that tells them apart may be missing. Identical values can stand only once.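 1) Cells in 96-well plates. 2) Compound, 48 h, 5 concentrations. 3) Linear interpolation between surrounding doses. 4) Unreached endpoint = highest concentration. Abbreviation: GI50, concentration required for 50% inhibition of growth.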 Activity calls are given as the source filed them. Rule as the data show it: active = GI50 up to about 1.1 µM and inactive = higher. Non-standard residues stand in square brackets, D forms with d. Residues, ends and D or L forms follow the SMILES beside them. ξ: configuration not given here. *: point of attachment. NMeF = CN[C@@H](Cc1ccccc1)C(=O)O; ξNMeV = CNC(C(=O)O)C(C)C; Boc = CC(C)(C)OC(=O)*; OBn = c1ccc(CO*)cc1

What was measured:
Assay in all cases: growth of human tumour cells (NCI), 48 h
HCC 2998 = tested on: HCC 2998
HL-60 = tested on: HL-60
HOP-62 = tested on: HOP-62
HOP-92 = tested on: HOP-92
IGROV-1 = tested on: IGROV-1
K562 = tested on: K562
M14 = tested on: M14
MOLT-4 = tested on: MOLT-4
NCI-H460 = tested on: NCI-H460
RXF 393 = tested on: RXF 393
SF-295 = tested on: SF-295
SF-539 = tested on: SF-539
SK-MEL-2 = tested on: SK-MEL-2
SNB-75 = tested on: SNB-75
EKVX = tested on: EKVX
NCI-H23 = tested on: NCI-H23
OVCAR-3 = tested on: OVCAR-3

Row | Compound | GI50 (HCC 2998) | GI50 (HL-60) | GI50 (HOP-62) | GI50 (HOP-92) | GI50 (IGROV-1) | GI50 (K562) | GI50 (M14) | GI50 (MOLT-4) | GI50 (NCI-H460) | GI50 (RXF 393) | GI50 (SF-295) | GI50 (SF-539) | GI50 (SK-MEL-2) | GI50 (SNB-75) | GI50 (EKVX) | GI50 (NCI-H23) | GI50 (OVCAR-3)
1 | Nc1ccc(C(=O)O)c2[nH]c3ccccc3c(=O)c12 | > 100 µM (inactive) | > 100 µM (inactive) | > 100 µM (inactive) | > 100 µM (inactive) | > 100 µM (inactive) | > 100 µM (inactive) | > 100 µM (inactive) | > 100 µM (inactive) | > 100 µM (inactive) | > 100 µM (inactive) | > 100 µM (inactive) | > 100 µM (inactive) | > 100 µM (inactive) | 31.9 µM (inactive) | – | – | –
2 | CCOC(=O)c1cnc2[nH]c(=O)c3ccccc3n2c1=O | – | 85.5 µM (inactive) | > 100 µM (inactive) | > 100 µM (inactive) | > 100 µM (inactive) | 65 µM (inactive) | > 100 µM (inactive) | > 100 µM (inactive) | > 100 µM (inactive) | > 100 µM (inactive) | > 100 µM (inactive) | > 100 µM (inactive) | > 100 µM (inactive) | > 100 µM (inactive) | > 100 µM (inactive) | > 100 µM (inactive) | > 100 µM (inactive)
3 | CC(=O)O[C@H]1CC[C@@]2(C)C(=CC[C@@H]3C2CC[C@]2(C)C(=O)NC(=O)CC32)C1 (some centres not stated) | > 100 µM (inactive) | > 63.1 µM (inactive) | > 100 µM (inactive) | > 100 µM (inactive) | > 100 µM (inactive) | > 56 µM (inactive) | > 100 µM (inactive) | > 100 µM (inactive) | > 100 µM (inactive) | 35.5 µM (inactive) | > 100 µM (inactive) | > 100 µM (inactive) | > 100 µM (inactive) | > 100 µM (inactive) | > 100 µM (inactive) | > 100 µM (inactive) | –
4 | COC(=O)C(Cc1nc2ccccc2nc1C)/C(=N\NC(N)=O)C(=O)Nc1cccc([N+](=O)[O-])c1 (configuration not stated) | > 100 µM (inactive) | 36.1 µM (inactive) | > 100 µM (inactive) | – | > 100 µM (inactive) | 64.3 µM (inactive) | > 100 µM (inactive) | 57.5 µM (inactive) | > 100 µM (inactive) | 36.8 µM (inactive) | > 100 µM (inactive) | 74.3 µM (inactive) | > 100 µM (inactive) | > 100 µM (inactive) | > 100 µM (inactive) | 71.8 µM (inactive) | 51.2 µM (inactive)
5 | O=C1c2ccccc2N2OC3(N4CCCC4)CCCC3C12c1ccccc1 (configuration not stated) | > 100 µM (inactive) | 43.3 µM (inactive) | > 100 µM (inactive) | 34.8 µM (inactive) | > 100 µM (inactive) | 76.6 µM (inactive) | > 100 µM (inactive) | 49.9 µM (inactive) | – | > 100 µM (inactive) | 86.1 µM (inactive) | > 100 µM (inactive) | – | > 100 µM (inactive) | > 100 µM (inactive) | > 100 µM (inactive) | –
6 | NC(=O)CCC(Nc1c2ccccc2nc2ccccc12)C(=O)O (configuration not stated) | > 100 µM (inactive) | 15.3 µM (inactive) | – | 41.1 µM (inactive) | – | 45.7 µM (inactive) | > 100 µM (inactive) | 58.1 µM (inactive) | 86.9 µM (inactive) | > 100 µM (inactive) | > 100 µM (inactive) | > 100 µM (inactive) | > 100 µM (inactive) | > 100 µM (inactive) | 71.3 µM (inactive) | > 100 µM (inactive) | 56.8 µM (inactive)
7 | CC(C)C(C(=O)N1CCC[C@@H]1C(=O)OCc1ccccc1)N(C)C(=O)C(C(C)C)N(C)C(=O)[C@H](Cc1ccccc1)N(C)C(=O)[C@H](NC(=O)OC(C)(C)C)C(C)C (some centres not stated) (Boc-[dV][NMeF][ξNMeV][ξNMeV][dP]-OBn) | > 100 µM (inactive) | 4.12 µM (inactive) | > 100 µM (inactive) | 68.4 µM (inactive) | > 100 µM (inactive) | 13.7 µM (inactive) | > 100 µM (inactive) | 7.94 µM (inactive) | > 24.3 µM (inactive) | > 100 µM (inactive) | 9.04 µM (inactive) | > 100 µM (inactive) | > 100 µM (inactive) | 9.91 µM (inactive) | > 65.8 µM (inactive) | > 81.3 µM (inactive) | > 56.6 µM (inactive)
8 | CN(c1nc(=[N+](C)C)ss1)C1CCCCC1 | > 100 µM (inactive) | > 100 µM (inactive) | > 100 µM (inactive) | > 100 µM (inactive) | > 100 µM (inactive) | > 100 µM (inactive) | > 100 µM (inactive) | 95.1 µM (inactive) | 13.3 µM (inactive) | > 100 µM (inactive) | 93.1 µM (inactive) | > 100 µM (inactive) | > 100 µM (inactive) | > 100 µM (inactive) | > 100 µM (inactive) | 74.3 µM (inactive) | –
9 | O=S(O)CCCCSSCC(O)C(O)CSSCCCCS(=O)O (configuration not stated) | – | 10.2 µM (inactive) and 10.6 µM (inactive) | > 100 µM (inactive) | 26.4 µM (inactive) and 39.7 µM (inactive) | 83.6 µM (inactive) and 44.5 µM (inactive) | 18.7 µM (inactive) and 12.6 µM (inactive) | 12.9 µM (inactive) and 9.08 µM (inactive) | 918 nM (active) and 697 nM (active) | 52.4 µM (inactive) and 40.4 µM (inactive) | 22.3 µM (inactive) and 14.7 µM (inactive) | 15.5 µM (inactive) and 12.4 µM (inactive) | 17.6 µM (inactive) and 23 µM (inactive) | 17.4 µM (inactive) and 15 µM (inactive) | 12 µM (inactive) and 17.3 µM (inactive) | 26.9 µM (inactive) and 33.4 µM (inactive) | 18.4 µM (inactive) and 29.2 µM (inactive) | 11.4 µM (inactive) and 12.4 µM (inactive)
10 | COc1ccc2nc3cc(Cl)ccc3c(Sc3ccc([N+](=O)[O-])cc3C)c2c1 | > 100 µM (inactive) | – | > 100 µM (inactive) | > 100 µM (inactive) | > 100 µM (inactive) | > 100 µM (inactive) | > 100 µM (inactive) | > 100 µM (inactive) | > 100 µM (inactive) | > 100 µM (inactive) | > 100 µM (inactive) | > 100 µM (inactive) | > 100 µM (inactive) | > 100 µM (inactive) | > 100 µM (inactive) | > 100 µM (inactive) | > 100 µM (inactive)
11 | C=CCCCCCC(O)C(O)C/C=C\C/C=C\CC (configuration not stated) | > 18.8 µM (inactive) | > 7.71 µM (inactive) | > 16.8 µM (inactive) | > 18.8 µM (inactive) | > 18.8 µM (inactive) | > 12 µM (inactive) | > 18.8 µM (inactive) | > 14.9 µM (inactive) | 13.5 µM (inactive) | > 18.8 µM (inactive) | > 18.8 µM (inactive) | > 18.8 µM (inactive) | > 18.8 µM (inactive) | > 18.8 µM (inactive) | > 18.8 µM (inactive) | > 17.8 µM (inactive) | > 18.8 µM (inactive)
12 | CCCCCC(CN1CCOCC1)C(=O)/C=C/c1ccccc1 (configuration not stated) | 2 µM (inactive) | 1.85 µM (inactive) | 5 µM (inactive) | 2.19 µM (inactive) | 3.37 µM (inactive) | 2.16 µM (inactive) | 2 µM (inactive) | 1.71 µM (inactive) | 2.77 µM (inactive) | 1.82 µM (inactive) | 3.46 µM (inactive) | 2.07 µM (inactive) | – | 7.13 µM (inactive) | 10.4 µM (inactive) | 3.36 µM (inactive) | 2.3 µM (inactive)
13 | COCOCC[C@@H]1CC=CC(NC(=O)OCc2ccccc2)C1/C=C/C(=O)CCC1OCCO1 (some centres not stated) | > 63.7 µM (inactive) | 18.5 µM (inactive) | > 79.8 µM (inactive) | > 54.8 µM (inactive) | 56.6 µM (inactive) | 32.1 µM (inactive) | 29.5 µM (inactive) | 10.5 µM (inactive) | 38.6 µM (inactive) | 29.7 µM (inactive) | 48.1 µM (inactive) | 25.6 µM (inactive) | 25.4 µM (inactive) | 28.8 µM (inactive) | 50.1 µM (inactive) | 37.6 µM (inactive) | 27.2 µM (inactive)
14 | Clc1cc2n[se]nc2cc1Cl | > 100 µM (inactive) | 84.1 µM (inactive) | > 100 µM (inactive) | – | > 100 µM (inactive) | > 100 µM (inactive) | > 100 µM (inactive) | > 100 µM (inactive) | > 100 µM (inactive) | > 100 µM (inactive) | > 100 µM (inactive) | > 100 µM (inactive) | > 100 µM (inactive) | 36.1 µM (inactive) | > 100 µM (inactive) | > 100 µM (inactive) | –
15 | CC1=C(C(=O)Nc2c(C)cccc2C)C(c2ccc3c(c2)OCO3)C(C(=O)Nc2c(C)cccc2C)=C(C)N1 | 18.1 µM (inactive) | 16.3 µM (inactive) | 23.1 µM (inactive) | – | 4.2 µM (inactive) | 13.4 µM (inactive) | 18.1 µM (inactive) | 15 µM (inactive) | 18.5 µM (inactive) | 16.5 µM (inactive) | 16.5 µM (inactive) | 19.2 µM (inactive) | – | 17.8 µM (inactive) | 21.5 µM (inactive) | 16.1 µM (inactive) | 36.3 µM (inactive)
16 | CCN(CC)CCCCC1CCN(CC(=O)N2c3ccccc3NC(=O)c3ccccc32)CC1 | > 100 µM (inactive) | > 100 µM (inactive) | > 100 µM (inactive) | > 100 µM (inactive) | – | > 100 µM (inactive) | 19.4 µM (inactive) | > 100 µM (inactive) | – | – | > 100 µM (inactive) | > 100 µM (inactive) | > 100 µM (inactive) | > 100 µM (inactive) | > 100 µM (inactive) | 55.6 µM (inactive) | > 100 µM (inactive)
17 | COC(=O)C1=CC2CC1C(S(=O)(=O)c1ccccc1)C2S(=O)(=O)c1ccccc1 (configuration not stated) | 19.7 µM (inactive) | 2.62 µM (inactive) | 54.3 µM (inactive) | 15.1 µM (inactive) | 32.7 µM (inactive) | 5.14 µM (inactive) | 11.3 µM (inactive) | 4.42 µM (inactive) | 21.6 µM (inactive) | – | 21.3 µM (inactive) | – | – | – | – | 18.1 µM (inactive) | 7.23 µM (inactive)
